Measured values reported in patent publication US20260216175A1, “COMPLEMENT INHIBITION” (Apellis Pharmaceuticals, Inc., priority 2023, published 2026).

test system: not listed separately; assay: biological activity of enantiomers (assay not specified); conditions: first eluting vs second eluting enantiomer

Q: For COc1cc(C)c2[nH]ccc2c1CN1CCN(CC(F)F)CC1c1ccc(C(=O)O)c(O)c1 (single isomer, unassigned) [Example 68, 4-(4-(2,2-difluoroethyl)-1-((5-methoxy-7-methyl-1H-indol-4-yl)methyl)piperazin-2-yl)-2-hydroxybenzoic acid], which “biological activity, comparison of enantiomers” value is on record?
A: more active enantiomer

test system: complement activation; assay: not given; conditions: fold activity relative to compstatin amidated at the C-terminus; based on published data and assays (WO2004/026328, WO2007044668, Mallik 2005; Katragadda 2006); cited from earlier work

Q: For Ac-ICVYQDWGAHRCT-CONH2 [Ac-V4Y/H9A], which Activity over compstatin is on record?
A: 14 × more

Q: With “Ac-ICVWQD(5fW)GAHRCT-CONH2 [Ac-V4W/W7(5fW)/H9A]” as the compound, how does the Activity over compstatin read?
A: 121 × more

Q: For “Ac-ICVWQDWGAHRCT-CONH2 (Ac-ICVWQDWGAHRCT-NH2; cysteine pairing not given here) [Ac-V4W/H9A, compstatin analog]”, which Activity over compstatin is on record?
A: 45 × more

Q: For “Ac-ICVWQDWGAHRCdT-COOH [Ac-V4W/H9A/T13dT —OH]”, which Activity over compstatin is on record?
A: 55 × more

Q: Which Activity over compstatin does the source give for “Ac-ICV(Bpa)QDWGAHRCT-COOH [Ac-V4(Bpa)/H9A —OH]” here?
A: 49 × more

Q: Which Activity over compstatin does the source give for “Ac-ICV(2-Nal)QDWGAHRCT-COOH [Ac V4(2-Nal)/H9A —OH]” here?
A: 38 × more

Q: With “Ac-ICV(2-Nal)QDWGAHRCT-CONH2 [Ac-V4(2-Nal)/H9A]” as the compound, how does the Activity over compstatin read?
A: 99 × more

Q: For “Ac-ICV(2-IgI)QDWGAHRCT-COOH [Ac-V42IgI/H9A —OH]”, which Activity over compstatin is on record?
A: 37 × more

Q: Which Activity over compstatin does the source give for “H-GICV(6fW)QD(6fW)GAHRCTN-COOH [+G/V4(6fW)/W7(6fW)H9A + N—OH]” here?
A: 126 × more

Q: For “Ac-ICV(1-Nal)QDWGAHRCT-COOH [Ac V4(1-Nal)/H9A —OH]”, which Activity over compstatin is on record?
A: 30 × more

Q: Which Activity over compstatin does the source give for Ac-ICVVQDWGHHRCT-CONH2 [Ac-compstatin] here?
A: 3 × more

Q: Which Activity over compstatin does the source give for “Ac-ICV(Bpa)QDWGAHRCT-CONH2 [Ac-V4(Bpa)/H9A]” here?
A: 86 × more

Q: For “Ac-ICVDhtQDWGAHRCT-COOH [Ac-V4Dht/H9A —OH]”, which Activity over compstatin is on record?
A: 5 × more

Q: For “Ac-ICV(2-IgI)QDWGAHRCT-CONH2 [Ac-V42IgI/H9A]”, which Activity over compstatin is on record?
A: 39 × more
